# Data taken from patent US7910612B2, “4-oxy-N-[1,3,4]-thiadiazol-2-yl-benzene sulfonamides, pharmaceutical compositions and methods for their therapeutic use” (Sanofi-Aventis, priority 2005, dated 2011).
# Biological target: T1, human PPARgamma (Homo sapiens, UniProt P37231)
# T1 construct: amino acids 1152-Y475; expressed in transfected cells; host or cells: HEK (human embryonic kidney) cells, transiently transfected with pcDNA3-GAL4-humanPPARgammaLBD
# T1 sequence (P37231 182-477 isoform P37231-2 limits assumed): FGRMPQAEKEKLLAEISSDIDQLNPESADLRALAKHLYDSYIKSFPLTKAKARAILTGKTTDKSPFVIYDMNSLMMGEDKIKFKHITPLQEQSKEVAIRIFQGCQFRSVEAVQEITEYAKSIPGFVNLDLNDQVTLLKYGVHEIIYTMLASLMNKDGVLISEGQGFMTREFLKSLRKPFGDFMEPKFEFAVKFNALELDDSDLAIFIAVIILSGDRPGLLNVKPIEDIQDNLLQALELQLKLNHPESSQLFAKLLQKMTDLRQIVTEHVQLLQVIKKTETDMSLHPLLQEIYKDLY
# Test: cellular PPARgamma assay (transiently transfected HEK cells, luciferase reporter)
# Assay type: cell-based
# Text: A transient transfection system is employed to determine the cellular PPARgamma activity of PPAR agonists. It is based on the use of a luciferase reporter plasmid (pGL3basic-5xGAL4-TK) and of a PPARgamma expression plasmid (pcDNA3-GAL4-humanPPARgammaLBD). Both plasmids are transiently transfected into human embryonic kidney cells (HEK cells). There is then expression in these cells of the fusion protein GAL4-humanPPARgammaLBD which binds to the GAL4 binding sites of the reporter plasmid. In the presence of a PPARgamma-active ligand, the activated fusion protein GAL4-humanPPARgammaLBD induces expression of the luciferase reporter gene, which can be detected in the form of a chemiluminescence signal after addition of a luciferase substrate. As a difference from the stably transfected PPARalpha reporter cell line, in the cellular PPARgamma assay the two components (luciferase reporter plasmid and PPARgamma expression plasmid) are transiently transfected into HEK cells because stable and permanent expression of the PPARgamma fusion protein is cytotoxic.
# The luciferase reporter plasmid pGL3basic-5xGAL4-TK is based on the vector pGL3basic from Promega. The reporter plasmid is prepared by cloning five binding sites of the yeast transcription factor GAL4 (each binding site with the sequence 5′-CTCGGAGGACAGTACTCCG-3′), together with a 160 bp-long thymidine kinase promoter section (Genbank Accession #AF027128) 5′-upstream into pGL3basic. 3′-downstream of the thymidine kinase promoter is the complete luciferase gene from Photinus pyralis (Genbank Accession #M15077) which is already a constituent of the plasmid pGL3basic used. The cloning and sequencing of the reporter plasmid pGL3basic-5xGAL4-TK took place in analogy to the description in Sambrook J. et. al. (Molecular cloning, Cold Spring Harbor Laboratory Press, 1989).
# The PPARgamma expression plasmid pcDNA3-GAL4-humanPPARgammaLBD was prepared by first cloning the cDNA coding for amino acids 1-147 of the yeast transcription factor GAL4 (Genbank Accession #P04386) into the plasmid pcDNA3 (from Invitrogen) 3′-downstream of the cytomegalovirus promoter. Subsequently, the cDNA of the ligand-binding domain (LBD) of the human PPARgamma receptor (amino acids […]; Accession #g1480099) 3′-downstream of the GAL4 DNA binding domain. Cloning and sequencing of the PPARgamma expression plasmid pcDNA3-GAL4-humanPPARgammaLBD again took place in analogy to the description in Sambrook J. et. al. (Molecular cloning, Cold Spring Harbor Laboratory Press, 1989). Besides the luciferase reporter plasmid pGL3basic-5xGAL4-TK and the PPARgamma expression plasmid pcDNA3-GAL4-humanPPARgammaLBD, also used for the cellular PPARgamma assay are the reference plasmid pRL-CMV (from Promega) and the plasmid pBluescript SK(+) from Stratagene. All four plasmids were prepared using a plasmid preparation kit from Qiagen, which ensured a plasmid quality with a minimal endotoxin content, before transfection into HEK cells.
# The activity of PPARgamma agonists was then determined in a 4-day assay which is described below. Before the transfection, HEK cells are cultivated in DMEM (#41965-039, Invitrogen) which is mixed with the following additions: 10% FCS (#16000-044, Invitrogen), 1% penicillin-streptomycin solution (#15140-122, Invitrogen) and 2 mM L-glutamine (#25030-024, Invitrogen).
# Firstly, solution A, a transfection mixture which contains all four plasmids previously described in addition to DMEM, is prepared. The following amounts are used to make up 3 ml of solution A for each 96 well microtiter plate for an assay: 2622 μl of antibiotic- and serum-free DMEM (#41965-039, Invitrogen), 100 μl of reference plasmid pRL-CMV (1 ng/μl), 100 μl of luciferase reporter plasmid pGL3basic-5xGAL4-TK (10 ng/μl), 100 μl of PPARgamma expression plasmid pcDNA3-GAL4-humanPPARgammaLBD (100 ng/μl) and 78 μl of plasmid pBluescript SK(+) (500 ng/μl). […]
row,SMILES,EC50
1,"COc1ccc2c(COc3ccc(S(=O)(=O)Nc4nnc(C(C)C)s4)cc3)coc2c1 [Example 3, N-(5-Isopropyl-[1,3,4]thiadiazol-2-yl)-4-(6-methoxy-benzofuran-3-ylmethoxy)-benzenesulfonamide]",460 nM
2,"CC(C)c1nnc(NS(=O)(=O)c2ccc(OCc3ccc(Oc4ccc(C(F)(F)F)cc4)cc3)cc2)s1 [Example 4, N-(5-Isopropyl-[1,3,4]thiadiazol-2-yl)-4-[4-(4-trifluoromethyl-phenoxy)-benzyloxy]-benzenesulfonamide]",460 nM
3,"COc1ccc(-c2nc(COc3ccc(S(=O)(=O)Nc4nnc(C(C)C)s4)cc3)no2)cc1 [Example 9, N-(5-Isopropyl-[1,3,4]thiadiazol-2-yl)-4-[5-(4-methoxy-phenyl)-[1,2,4]oxadiazol-3-ylmethoxy]-benzenesulfonamide]",50 nM
4,"COc1ccc(-c2nc(COc3ccc(S(=O)(=O)Nc4nnc(C(C)C)s4)cc3)co2)cc1 [Example 13, N-(5-Isopropyl-[1,3,4]thiadiazol-2-yl)-4-[2-(4-methoxy-phenyl)-oxazol-4-ylmethoxy]-benzenesulfonamide]",1970 nM

# Continued by falling EC50, values first:
row,EC50,SMILES
1,50 nM,"Cc1nc(-c2ccc(C(F)(F)F)cc2)sc1COc1ccc(S(=O)(=O)Nc2nnc(C(C)C)s2)cc1 [Example 1, N-(5-Isopropyl-[1,3,4]thiadiazol-2-yl)-4-[4-methyl-2-(4-trifluoromethyl-phenyl)-thiazol-5-ylmethoxy]-benzenesulfonamide]"
2,1 nM,"CCc1oc(-c2cccc(C(F)(F)F)c2)nc1COc1ccc(S(=O)(=O)Nc2nnc(C(C)C)s2)cc1 [Example 14, 4-[5-Ethyl-2-(3-trifluoromethyl-phenyl)-oxazol-4-ylmethoxy]-N-(5-isopropyl-[1,3,4]thiadiazol-2-yl)-benzenesulfonamide]"
